Data: patent publication US20220411480A1, “ANTITUMOR PEPTIDE AND USE THEREOF” (TOAGOSEI CO., LTD, priority 2018, published 2022)
Residues, ends and D or L forms follow the SMILES beside them.

Legend:
[1] = test system: human colorectal cancer cell lines (SW480); assay: Antitumor activity evaluation test (2), cell viability by Cell Counting Kit-8 (WST-8); assay type: cell-based; conditions: SW480 versus normal MCF-12F cells
Protocol: (§1) A2058 cells and MCF-12F cells were cultured and prepared so that the number of cells per well in a 96-well plate was about 5×10^3. An amount of the culture medium in this case was 100 μL per well.
(§2) Next, the 96-well plate was placed in a CO2 incubator and pre-incubated under conditions of 37° C. and 5% CO2 for about 1 day (21 hours to 24 hours).
(§3) Then, peptide-containing test culture mediums for each concentration were prepared so that the concentrations of the sample peptides to be evaluated were 12.5 μM and 25 μM, and supplied to wells (that is, wells after the pre-incubation) in which 90μL of cells to be evaluated were cultured in each well. Then, the 96-well plate was returned to the CO2 incubator and incubated under conditions of 37° C. and 5% CO2 for 48 hours.
(§4) Here, the number of test wells (n) at peptide concentrations in peptide addition test groups was set to 3. Therefore, the value of the result shown in the following table is an average value of the results obtained in three test wells. First, the cell viability (%) was determined as follows.
(§5) After the incubation for 48 hours was completed, the culture medium in each well was replaced with 100 μL of a fresh culture medium containing no peptide, and additionally, 10μL of a cell proliferation measurement reagent “Cell Counting Kit-8” (product, commercially available from Dojindo Molecular Technologies, Inc.) containing a “water-soluble tetrazolium salt (WST-8)” as a coloring reagent was added to each well. Then, the 96-well plate was returned to the CO2 incubator and incubated under conditions of 37° C., and 5% CO2 for 1.5 hours to 2 hours.
(§6) After the incubation was completed, the cell culture solution to which the reagent was added was collected and the cell viability (%) was evaluated according to a colorimetric method in which an absorbance at a wavelength of 450 nm (value corrected by the absorbance at a wavelength of 650 nm: A450-A650) was measured based on the reduction of the tetrazolium salt. Specifically, a measured value (measured absorbance) of a comparative test group in which the above incubation was performed for 48 hours simply in a culture medium containing no peptide was set as a cell viability of 100%, and the cell viability (%) was calculated from the measured absorbance of each test cell line as a relative value.
(§7) The antitumor activity and antitumor cell selective antitumor activity of Samples 2 and 6 of Test Example 1, with respect to a plurality of types of human-derived cultured tumor cells were evaluated.
(§8) Specifically, currently commercially available human melanoma cell lines (SK-MELS), human non-small cell lung cancer cell lines (H2444), and human colorectal cancer cell lines (SW480) were used as test tumor cells. In addition, the above MCF-12F cells were used as normal cells for comparison.
(§9) Leibovitz's L-15 culture medium including 100 unit/mL of penicillin, 100 μg/mL of streptomycin, and 10% FBS (product, commercially available from Gibco)
(§10) Here, in the evaluation test using SW480 cell lines, the cells were cultured under conditions of 37° C. and without CO2.
(§11) Then, the cell viability was calculated in the same processes as in Test Example 2. Here, in this test example, the antitumor activity of Sample 6 with respect to SK-MELS cells, the antitumor activity of Sample 2 with respect to H2444 cells, and the antitumor activity of Sample 2 and Sample 6 with respect to SW480 cells were evaluated.
(§12) Next, a specific cell viability was calculated in the same processes as in Test Example 2. That is,
(§13) {(Test tumor cell survival rate)/(MCF-12F cell viability)}×100 was calculated as a specific cell viability of the tumor cells, and a test tumor cells selective antitumor activity with respect to normal cells was evaluated using such a specific cell viability as an index. […]

[2] = as above; assay type: cell-based, human; conditions: peptide 25 μM, 48 hours, 37° C. without CO2, relative to no peptide = 100%; read-out: cell viability of SW480 cells
Protocol: as §1, §2, §3, §4, §5, §6, §7, §8, §9, §10, §11, §12, §13

[3] = test system: human melanoma (A2058) cell lines; assay: Antitumor activity evaluation test (1), cell viability by Cell Counting Kit-8 (WST-8); assay type: cell-based; conditions: 48 hours, A2058 versus normal MCF-12F cells
Protocol: (§14) The antitumor activity of the sample peptides synthesized in Test Example 1 was evaluated using human-derived cultured tumor cells as targets.
(§15) Specifically, currently commercially available human melanoma (A2058) cell lines were used as test tumor cells. In addition, a normal human mammary epithelial cell culture line (MCF-12F) was used for comparison. Here, culture solutions of respective cells are as follows. • (1) A2058 cells:
(§16) DMEM culture medium including 2 mM L-glutamine, 0.1 mM of non-essential amino acids, 50 units/mL of penicillin, 50 μg/mL of streptomycin, and 10% fetal bovine serum (FBS) (product, commercially available from Wako Pure Chemical Industries, Ltd.). • (2) MCF-12F cells:
(§17) DMEM/F12 culture medium including 20 ng/mL of recombinant EGF, 10 μg/mL of insulin, 0.5 μg/mL of hydrocortisone, and 10% FBS (product, commercially available from Wako Pure Chemical Industries, Ltd.).
as §1, §2, §3, §4, §5, §6
(§18) Specifically, a value (value multiplied by 100 for convenience) obtained by dividing the cell viability of target tumor cells (here, A2058 cells) when the sample peptides were added at a concentration of 12.5 μM or 25 μM measured as described above by the cell viability of comparative normal cells (here, MCF-12F cells) measured under the same conditions, that is,
(§19) {(A2058 cell viability)/(MCF-12F cell viability)}×100 was calculated as a specific cell viability of the tumor cells, and the test tumor cells selective antitumor activity with respect to normal cells was evaluated using such a specific cell viability as an index.

[4] = as above; assay type: cell-based, human; conditions: peptide 25 μM, 48 hours, relative to culture medium containing no peptide = 100%; read-out: A2058 cell viability (survival rate)
Protocol: as §14, §15, §16, §17, §1, §2, §3, §4, §5, §6, §18, §19

[5] = Antitumor activity evaluation test (2), cell viability by Cell Counting Kit-8 (WST-8); assay type: cell-based, human; conditions: peptide 25 μM, 48 hours, relative to no peptide = 100%; read-out: cell viability of SK-MELS cells
Protocol: as §1, §2, §3
(§20) Here, the number of test wells (n) at peptide concentrations in peptide addition test groups was set to 3. Therefore, the value of the result shown in the following table is an average value of the results obtained in three test wells. First, the cell viability (%) was determined as follows. […]
as §6
(§21) The antitumor activity and antitumor cell selective antitumor activity of Samples 2 and 6 of Test Example 1, with respect to a plurality of types of human-derived cultured tumor cells were evaluated. […]
(§22) Then, the cell viability was calculated in the same processes as in Test Example 2. […]

[6] = test system: human melanoma cell lines (SK-MELS); assay: as above; assay type: cell-based; conditions: SK-MEL5 versus normal MCF-12F cells
Protocol: as §1, §2, §3, §20, §6, §21, §22

[7] = as above; assay type: cell-based, human; conditions: peptide 25 μM, 48 hours, relative to no peptide = 100%; read-out: cell viability of H2444 cells
Protocol: as §1, §2, §3, §20, §6, §21, §22

[8] = test system: human non-small cell lung cancer cell lines (H2444); assay: as above; assay type: cell-based; conditions: H2444 versus normal MCF-12F cells
Protocol: as §1, §2, §3, §20, §6, §21, §22

| SMILES | Specific cell viability {(Test tumor cell survival rate)/(MCF-12F cell viability)}×100 ([1]; peptide 12.5 μM) | Specific cell viability {(Test tumor cell survival rate)/(MCF-12F cell viability)}×100 ([1]; peptide 25 μM) | viability [2] [%] | Specific cell viability {(A2058 cell viability)/(MCF-12F cell viability)}×100 ([3]; peptide 12.5 μM) | Specific cell viability {(A2058 cell viability)/(MCF-12F cell viability)}×100 ([3]; peptide 25 μM) | viability [4] [%] | viability [5] [%] | Specific cell viability {(Test tumor cell survival rate)/(MCF-12F cell viability)}×100 ([6]; peptide 12.5 μM) | Specific cell viability {(Test tumor cell survival rate)/(MCF-12F cell viability)}×100 ([6]; peptide 25 μM) | viability [7] [%] | Specific cell viability {(Test tumor cell survival rate)/(MCF-12F cell viability)}×100 ([8]; peptide 12.5 μM) | Specific cell viability {(Test tumor cell survival rate)/(MCF-12F cell viability)}×100 ([8]; peptide 25 μM) |
| --- | --- | --- | --- | --- | --- | --- | --- | --- | --- | --- | --- | --- |
| CSCC[C@H](NC(=O)[C@H](C)NC(=O)[C@@H](N)CC(C)C)C(=O)N[C@@H](C)C(=O)N[C@@H](C)C(=O)N[C@@H](C)C(=O)N[C@@H](C)C(=O)N[C@@H](Cc1c[nH]c2ccccc12)C(=O)NCC(=O)N[C@H](C(=O)N[C@@H](CO)C(=O)N[C@@H](CC(C)C)C(=O)N[C@@H](CC(C)C)C(=O)N[C@@H](CC(C)C)C(=O)NCC(=O)N[C@@H](CC(C)C)C(=O)N[C@@H](CC(C)C)C(=O)N1CCC[C@H]1C(=O)N[C@@H](C)C(=O)N[C@@H](CC(C)C)C(=O)NCC(=O)N[C@@H](CCCNC(=N)N)C(=O)N[C@@H](CCCCN)C(=O)N[C@@H](CCCCN)C(=O)N[C@@H](CCCNC(=N)N)C(=O)N[C@@H](CCCNC(=N)N)C(=O)N[C@@H](CCC(N)=O)C(=O)N[C@@H](CCCNC(=N)N)C(=O)N[C@@H](CCCNC(=N)N)C(=O)N[C@@H](CCCNC(=N)N)C(N)=O)C(C)C [Sample 6] (H-LAMAAAAWGVSLLLGLLPALGRKKRRQRRR-NH2; N-terminus assumed) | 1.14 | 2.38 | 20.2 | 40 | 5.88 | 0.5 | 1.9 | 0.25 | 0.22 | – | – | – |
| CC[C@H](C)[C@H](NC(=O)[C@H](CC(N)=O)NC(=O)[C@@H](NC(=O)[C@@H](N)CC(C)C)C(C)C)C(=O)N[C@H](C(=O)N[C@@H](CC(C)C)C(=O)N[C@@H](CO)C(=O)N[C@@H](CC(=O)O)C(=O)N[C@@H](CC(C)C)C(=O)N[C@@H](CC(C)C)C(=O)N[C@H](C(=O)NCC(=O)N[C@@H](C)C(=O)N[C@@H](C)C(=O)N[C@@H](Cc1ccc(O)cc1)C(=O)N[C@@H](CC(C)C)C(=O)N[C@@H](C)C(=O)N[C@@H](CC(N)=O)C(=O)N[C@H](C(=O)N[C@@H](CC(C)C)C(=O)N[C@@H](CC(C)C)C(=O)N[C@@H](CCCNC(=N)N)C(=O)N[C@@H](CCCCN)C(=O)N[C@@H](CCCCN)C(=O)N[C@@H](CCCNC(=N)N)C(=O)N[C@@H](CCCNC(=N)N)C(=O)N[C@@H](CCC(N)=O)C(=O)N[C@@H](CCCNC(=N)N)C(=O)N[C@@H](CCCNC(=N)N)C(=O)N[C@@H](CCCNC(=N)N)C(N)=O)C(C)C)[C@@H](C)O)[C@@H](C)O [Sample 2] (H-LVNITLSDLLTGAAYLANVLLRKKRRQRRR-NH2; N-terminus assumed) | 2.98 | 0.45 | 2.3 | 4.79 | 1.96 | 0.1 | – | – | – | 2.1 | 0.22 | 0.41 |
